Data published in PubChem BioAssay (NCI).
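Where inhibition never reached the appropriate level, the endpoint shown equals the highest concentration tested. Otherwise, values were interpolated linearly from a five-concentration, 48-hour dose response in 96-well plates. At the GI50, growth is halved. The concentration for full growth arrest is given as TGI.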

Columns and labels:
Assay in all cases: NCI anticancer screen, dose series, 48 h
HCT-116 colon = test system: HCT-116 colon
OVCAR-4 ovarian = test system: OVCAR-4 ovarian
SF-539 CNS = test system: SF-539 CNS
NCI-H23 lung = test system: NCI-H23 lung
786-0 renal = test system: 786-0 renal
HS 578T breast = test system: HS 578T breast
OVCAR-8 ovarian = test system: OVCAR-8 ovarian
MDA-MB-435 = test system: MDA-MB-435
EKVX NSCLC = test system: EKVX NSCLC
UACC-62 melanoma = test system: UACC-62 melanoma
HCC-2998 colon = test system: HCC-2998 colon
SNB-75 CNS = test system: SNB-75 CNS
NCI-H460 lung = test system: NCI-H460 lung
SW-620 colon = test system: SW-620 colon
NCI-H522 lung = test system: NCI-H522 lung
K-562 leukemia = test system: K-562 leukemia
LOX IMVI melanoma = test system: LOX IMVI melanoma
HCT-15 colon = test system: HCT-15 colon
CAKI-1 renal = test system: CAKI-1 renal
CCRF-CEM leukemia = test system: CCRF-CEM leukemia
HOP-92 NSCLC = test system: HOP-92 NSCLC
OVCAR-5 ovarian = test system: OVCAR-5 ovarian
DU-145 prostate = test system: DU-145 prostate
T-47D breast = test system: T-47D breast
A498 renal = test system: A498 renal
A549 NSCLC = test system: A549 NSCLC
MALME-3M melanoma = test system: MALME-3M melanoma
SF-268 CNS = test system: SF-268 CNS
SK-MEL-2 melanoma = test system: SK-MEL-2 melanoma
SK-MEL-28 melanoma = test system: SK-MEL-28 melanoma
RXF 393 renal = test system: RXF 393 renal
SK-MEL-5 melanoma = test system: SK-MEL-5 melanoma
SN12C renal = test system: SN12C renal
OVCAR-3 ovarian = test system: OVCAR-3 ovarian
U251 CNS = test system: U251 CNS
MCF7 breast = test system: MCF7 breast
HT29 colon = test system: HT29 colon
ACHN renal = test system: ACHN renal
KM12 colon = test system: KM12 colon
HL-60(TB) leukemia = test system: HL-60(TB) leukemia
UO-31 renal = test system: UO-31 renal
SK-OV-3 ovarian = test system: SK-OV-3 ovarian
SNB-19 CNS = test system: SNB-19 CNS
M14 melanoma = test system: M14 melanoma
COLO 205 colon = test system: COLO 205 colon
TK-10 renal = test system: TK-10 renal
NCI-H226 lung = test system: NCI-H226 lung
UACC-257 melanoma = test system: UACC-257 melanoma
NCI/ADR-RES ovarian = test system: NCI/ADR-RES ovarian
RPMI-8226 leukemia = test system: RPMI-8226 leukemia
MDA-MB-231 breast = test system: MDA-MB-231 breast
BT-549 breast = test system: BT-549 breast
HOP-62 NSCLC = test system: HOP-62 NSCLC
SF-295 CNS = test system: SF-295 CNS
IGROV1 ovarian = test system: IGROV1 ovarian
PC-3 prostate = test system: PC-3 prostate
MOLT-4 leukemia = test system: MOLT-4 leukemia

## CN(C)CCNc1c2c(c(NCCN(C)C)c3c(CN(C)C)c[nH]c13)C(=O)c1ccccc1C2=O
HCT-116 colon
  GI50: 0.676 µM
  TGI: > 100 µM
OVCAR-4 ovarian
  GI50: 8.23 µM
  TGI: 34.1 µM
SF-539 CNS
  GI50: 3.85 µM
  TGI: 10.2 µM
NCI-H23 lung
  GI50: 3.91 µM
  TGI: 14.6 µM
786-0 renal
  GI50: 0.356 µM
  TGI: 8.91 µM
HS 578T breast
  GI50: 7.49 µM
  TGI: 19 µM
OVCAR-8 ovarian
  GI50: 2.16 µM
  TGI: 14.2 µM
MDA-MB-435
  GI50: 2.75 µM
  TGI: 8.04 µM
EKVX NSCLC
  GI50: 4.31 µM
  TGI: 17.3 µM
UACC-62 melanoma
  GI50: 14.7 µM
  TGI: 29.9 µM
HCC-2998 colon
  GI50: 2.14 µM
  TGI: 8.61 µM
SNB-75 CNS
  GI50: 19.2 µM
  TGI: 40.9 µM
NCI-H460 lung
  GI50: 2.2 µM
  TGI: 9.49 µM
SW-620 colon
  GI50: 2.7 µM
  TGI: 9.72 µM
NCI-H522 lung
  GI50: 3.39 µM
  TGI: 18.7 µM
K-562 leukemia
  GI50: 2.59 µM
  TGI: 14.6 µM
LOX IMVI melanoma
  GI50: 1.05 µM
  TGI: 2.73 µM
HCT-15 colon
  GI50: 1.35 µM
  TGI: 6.98 µM
CAKI-1 renal
  GI50: 4.73 µM
  TGI: 11.5 µM
CCRF-CEM leukemia
  GI50: 0.639 µM
  TGI: 2.58 µM
HOP-92 NSCLC
  GI50: 2.91 µM
  TGI: 15.8 µM
OVCAR-5 ovarian
  GI50: 16 µM
  TGI: 34.6 µM
DU-145 prostate
  GI50: 4.2 µM
  TGI: 15.1 µM
T-47D breast
  GI50: 22.3 µM
  TGI: 46.8 µM
A498 renal
  GI50: 18.7 µM
  TGI: 33.6 µM
A549 NSCLC
  GI50: 2.88 µM
  TGI: 9.98 µM
MALME-3M melanoma
  GI50: 6.5 µM
  TGI: 15.7 µM
SF-268 CNS
  GI50: 5.39 µM
  TGI: 22.1 µM
SK-MEL-2 melanoma
  GI50: 18.3 µM
  TGI: 42.9 µM
SK-MEL-28 melanoma
  GI50: 16.7 µM
  TGI: 38.2 µM
RXF 393 renal
  GI50: 3.71 µM
  TGI: 19.5 µM
SK-MEL-5 melanoma
  GI50: 5.65 µM
  TGI: 10.6 µM
SN12C renal
  GI50: 1.18 µM
  TGI: 7.32 µM
OVCAR-3 ovarian
  GI50: 4.29 µM
  TGI: 23.9 µM
U251 CNS
  GI50: 2.57 µM
  TGI: 10.4 µM
MCF7 breast
  GI50: 1.81 µM
  TGI: 10 µM
HT29 colon
  GI50: 2.56 µM
  TGI: 27.4 µM
ACHN renal
  GI50: 1.15 µM
  TGI: 5.88 µM
KM12 colon
  GI50: 1.6 µM
  TGI: 7.3 µM
HL-60(TB) leukemia
  GI50: 3.02 µM
  TGI: 7.48 µM
UO-31 renal
  GI50: 3.76 µM
  TGI: 16.8 µM
SK-OV-3 ovarian
  GI50: 17.4 µM
  TGI: 40.2 µM
SNB-19 CNS
  GI50: 16.1 µM
  TGI: 40 µM
M14 melanoma
  GI50: 2.48 µM
  TGI: 7.57 µM
COLO 205 colon
  GI50: 13.6 µM
  TGI: > 53.8 µM
TK-10 renal
  GI50: 2.08 µM
  TGI: 7.06 µM
NCI-H226 lung
  GI50: 15 µM
  TGI: 35.5 µM
UACC-257 melanoma
  GI50: 9.15 µM
  TGI: > 27.4 µM
NCI/ADR-RES ovarian
  GI50: 4.53 µM
  TGI: 20.5 µM
RPMI-8226 leukemia
  GI50: 0.545 µM
  TGI: 2.26 µM
MDA-MB-231 breast
  GI50: 1.61 µM
  TGI: 9.39 µM
BT-549 breast
  GI50: 18.2 µM
  TGI: 36.9 µM
HOP-62 NSCLC
  GI50: 0.946 µM
  TGI: 11.9 µM
SF-295 CNS
  GI50: 3.14 µM
  TGI: 9.83 µM
IGROV1 ovarian
  GI50: 2.22 µM
  TGI: 11.7 µM
PC-3 prostate
  GI50: 0.612 µM
  TGI: 3.2 µM
MOLT-4 leukemia
  GI50: 0.582 µM
  TGI: > 38.1 µM
